The target in one assay is FASN enzyme (Homo sapiens, UniProt P49327). In words: Enzymatic Assay for FASN Inhibitors. Type of assay: biochemical.
Chain of FASN enzyme (P49327 whole entry): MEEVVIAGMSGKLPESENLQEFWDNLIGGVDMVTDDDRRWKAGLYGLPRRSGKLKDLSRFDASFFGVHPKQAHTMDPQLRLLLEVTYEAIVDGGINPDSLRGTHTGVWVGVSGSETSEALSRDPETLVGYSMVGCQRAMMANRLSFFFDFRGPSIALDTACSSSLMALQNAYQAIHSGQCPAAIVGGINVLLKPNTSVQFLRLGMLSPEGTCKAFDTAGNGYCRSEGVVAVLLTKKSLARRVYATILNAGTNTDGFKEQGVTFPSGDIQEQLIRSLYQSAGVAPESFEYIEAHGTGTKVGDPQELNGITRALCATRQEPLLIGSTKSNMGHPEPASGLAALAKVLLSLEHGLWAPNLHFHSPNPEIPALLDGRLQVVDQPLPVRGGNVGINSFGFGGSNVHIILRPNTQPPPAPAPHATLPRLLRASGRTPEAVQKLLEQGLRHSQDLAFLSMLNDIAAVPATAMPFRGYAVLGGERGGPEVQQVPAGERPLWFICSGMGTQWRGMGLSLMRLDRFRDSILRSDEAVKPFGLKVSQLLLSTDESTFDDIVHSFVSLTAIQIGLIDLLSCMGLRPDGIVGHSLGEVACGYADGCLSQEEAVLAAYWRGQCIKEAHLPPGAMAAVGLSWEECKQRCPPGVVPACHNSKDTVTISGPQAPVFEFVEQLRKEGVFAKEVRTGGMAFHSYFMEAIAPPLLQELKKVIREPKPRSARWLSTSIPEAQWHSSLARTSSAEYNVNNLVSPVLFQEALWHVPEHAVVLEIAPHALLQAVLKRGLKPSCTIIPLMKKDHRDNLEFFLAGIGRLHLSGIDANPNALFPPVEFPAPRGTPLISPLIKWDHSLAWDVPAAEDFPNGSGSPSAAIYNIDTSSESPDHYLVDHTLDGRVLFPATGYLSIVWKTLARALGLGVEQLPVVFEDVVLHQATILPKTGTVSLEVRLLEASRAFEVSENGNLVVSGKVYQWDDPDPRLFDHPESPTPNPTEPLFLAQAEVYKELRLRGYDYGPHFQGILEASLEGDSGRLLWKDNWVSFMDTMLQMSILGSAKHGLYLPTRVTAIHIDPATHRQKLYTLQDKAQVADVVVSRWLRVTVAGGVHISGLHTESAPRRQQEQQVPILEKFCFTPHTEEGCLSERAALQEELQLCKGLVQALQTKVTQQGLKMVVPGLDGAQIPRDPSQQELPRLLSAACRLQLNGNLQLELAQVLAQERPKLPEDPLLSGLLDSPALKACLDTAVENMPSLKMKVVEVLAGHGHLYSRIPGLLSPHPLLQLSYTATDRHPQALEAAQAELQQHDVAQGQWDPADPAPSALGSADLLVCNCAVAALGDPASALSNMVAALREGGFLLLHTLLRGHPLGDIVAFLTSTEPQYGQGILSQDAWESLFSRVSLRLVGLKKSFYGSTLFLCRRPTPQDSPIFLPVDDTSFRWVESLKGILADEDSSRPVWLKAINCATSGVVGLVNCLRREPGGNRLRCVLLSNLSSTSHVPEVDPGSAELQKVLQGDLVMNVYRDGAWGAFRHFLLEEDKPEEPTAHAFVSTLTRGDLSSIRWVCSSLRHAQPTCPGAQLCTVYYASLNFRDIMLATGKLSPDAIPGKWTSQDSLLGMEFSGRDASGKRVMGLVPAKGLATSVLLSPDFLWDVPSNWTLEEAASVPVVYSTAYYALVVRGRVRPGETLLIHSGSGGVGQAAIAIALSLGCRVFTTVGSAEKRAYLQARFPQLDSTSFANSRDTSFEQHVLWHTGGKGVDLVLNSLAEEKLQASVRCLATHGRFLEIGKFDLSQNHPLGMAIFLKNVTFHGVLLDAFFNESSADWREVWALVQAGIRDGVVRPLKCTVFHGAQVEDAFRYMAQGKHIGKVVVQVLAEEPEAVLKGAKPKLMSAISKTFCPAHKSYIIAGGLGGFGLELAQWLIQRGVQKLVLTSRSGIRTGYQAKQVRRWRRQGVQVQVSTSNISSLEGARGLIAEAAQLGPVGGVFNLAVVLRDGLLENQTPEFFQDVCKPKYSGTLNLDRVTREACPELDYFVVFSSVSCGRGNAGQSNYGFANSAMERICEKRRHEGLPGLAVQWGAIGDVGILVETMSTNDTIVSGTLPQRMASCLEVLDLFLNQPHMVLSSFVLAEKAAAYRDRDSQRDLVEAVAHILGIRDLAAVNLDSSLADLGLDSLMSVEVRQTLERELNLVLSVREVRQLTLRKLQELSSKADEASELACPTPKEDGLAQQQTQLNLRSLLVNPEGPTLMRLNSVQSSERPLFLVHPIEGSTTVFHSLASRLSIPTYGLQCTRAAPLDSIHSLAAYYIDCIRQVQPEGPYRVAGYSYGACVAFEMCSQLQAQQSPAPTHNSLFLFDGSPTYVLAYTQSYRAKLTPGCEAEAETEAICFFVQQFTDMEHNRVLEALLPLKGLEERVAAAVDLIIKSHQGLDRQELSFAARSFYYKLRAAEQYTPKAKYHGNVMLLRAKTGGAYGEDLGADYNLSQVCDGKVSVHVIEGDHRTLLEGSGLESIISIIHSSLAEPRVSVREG
Conditions: not given
The method in brief: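 40 nM FASN preincubated with compound 60 min at 25° C in HEPES pH 7.3 buffer with 0.04% Triton X-100. Then 20 μM acetyl-CoA, 60 μM malonyl-CoA and 100 μM NADPH added for 90 min, quenched with CPM thiol probe; fluorescence 360/530 nm, IC50 by four-parameter fit.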
Regarding `Nc1cc(-c2cccc(-c3ccc(C(=O)N4CCN(C(=O)C5(O)CC5)CC4)c(F)c3)c2)no1` [1-(4-{4-[3-(5-amino-1,2-oxazol-3-yl)phenyl]-2-fluorobenzoyl}piperazine-1-carbonyl)cyclopropan-1-ol], the IC50 is less than 500 nM. On the same count and under the same terms, with `COc1ccc2c(c1)CN(c1ccc(C(=O)N3CCN(C(=O)C4(O)CC4)CC3)cc1)CC2` [1-{4-[4-(7-methoxy-1,2,3,4-tetrahydroisoquinolin-2-yl)benzoyl]piperazine-1-carbonyl}cyclopropan-1-ol] the figure was less than 500 nM. Still for that read-out and setting: with `Cc1n[nH]c2c(-c3ccc(C(=O)N4CCN(C(=O)C5(N)CC5)CC4)c(F)c3)cccc12` [1-{4-[2-fluoro-4-(3-methyl-1H-indazol-7-yl)benzoyl]piperazine-1-carbonyl}cyclopropan-1-amine] the figure was less than 500 nM; with `Cn1cc2ccc(-c3ccc(C(=O)N4CCN(C(=O)C5(O)CC5)CC4)cc3F)cc2n1` [1-{4-[3-fluoro-4-(2-methyl-2H-indazol-6-yl)benzoyl]piperazine-1-carbonyl}cyclopropan-1-ol], less than 500 nM; with `O=C(c1ccc(-c2ccc(Cl)cc2F)cc1F)N1CCN(C(=O)C2(O)CC2)CC1` [1-{4-[4-(4-chloro-2-fluorophenyl)-2-fluorobenzoyl]piperazine-1-carbonyl}cyclopropan-1-ol], less than 500 nM.

Molecule `N#CC1(c2cccc(-c3ccc(C(=O)N4CCN(C(=O)C5(O)CC5)CC4)c(F)c3)c2)CC1` [1-(3-{3-fluoro-4-[4-(1-hydroxycyclopropanecarbonyl)piperazine-1-carbonyl]phenyl}phenyl)cyclopropane-1-carbonitrile] came in with an IC50 of less than 500 nM.

As to `O=C(c1ccc(N2CCc3cccc(F)c32)cc1)N1CCN(C(=O)C2(O)CC2)CC1` [1-{4-[4-(7-fluoro-2,3-dihydro-1H-indol-1-yl)benzoyl]piperazine-1-carbonyl}cyclopropan-1-ol], the 50% inhibitory concentration (IC50) is less than 500 nM. Still for that read-out and setting: with `O=C(c1ccc(N2Cc3cccc(F)c3C2)cc1)N1CCN(C(=O)C2(O)CC2)CC1` [1-{4-[4-(4-fluoro-2,3-dihydro-1H-isoindol-2-yl)benzoyl]piperazine-1-carbonyl}cyclopropan-1-ol] the figure was less than 500 nM. With `O=C(c1ccc(-c2cc3[nH]nnc3cc2F)cc1)N1CCN(C(=O)C2(O)CC2)CC1`, the IC50 is less than 500 nM.

`N#CC1(c2cccc(-c3ccc(C(=O)N4CCN(C(=O)C5(O)CC5)CC4)cc3)c2)CCOCC1` [4-(3-{4-[4-(1-hydroxycyclopropanecarbonyl)piperazine-1-carbonyl]phenyl}phenyl)oxane-4-carbonitrile] had an IC50 of less than 500 nM.

For `O=C(c1ccc(-c2ccc3[nH]c(=O)ccc3c2)cc1)N1CCN(C(=O)C2(O)CC2)CC1`, the IC50 was less than 500 nM. The same measure, in the same setting: with `O=C(c1ccc(N2CCc3c([nH]c4ccccc34)C2)cc1)N1CCN(C(=O)C2(O)CC2)CC1` [1-[4-(4-{1H,2H,3H,4H,9H-pyrido[3,4-b]indol-2-yl}benzoyl)piperazine-1-carbonyl]cyclopropan-1-ol] the figure was less than 500 nM.

`Cn1cc2ccc(-c3ccc(C(=O)N4CCN(C(=O)C5(N)CCC5)CC4)c(F)c3)cc2n1` [1-{4-[2-fluoro-4-(2-methyl-2H-indazol-6-yl)benzoyl]piperazine-1-carbonyl}cyclobutan-1-amine] registered an IC50 of less than 500 nM. For the molecule `C[C@@H]1CN(C(=O)c2ccc(-c3nc4ccc(F)cc4o3)cc2)C[C@H](C)N1C(=O)C1(O)CC1`, the IC50 was less than 500 nM. Still for that read-out and setting: with `Cc1cc2ccccc2n1-c1ccc(C(=O)N2CCN(C(=O)C3(O)CC3)CC2)cc1` [(4-(1-hydroxycyclopropane-1-carbonyl)piperazin-1-yl)(4-(2-methyl-1H-indol-1-yl)phenyl)methanone] the figure was less than 500 nM. On the same count and under the same terms, with `Cn1ncc2ccc(-c3ccc(C(=O)N4CCN(C(=O)C5(O)CC5)CC4)cc3F)cc21` [1-{4-[3-fluoro-4-(1-methyl-1H-indazol-6-yl)benzoyl]piperazine-1-carbonyl}cyclopropan-1-ol] the figure was less than 500 nM. On the same count and under the same terms, with `O=C(c1ccc(-c2cccc(N3CCCS3(=O)=O)c2)cc1)N1CCN(C(=O)C2(O)CC2)CC1` [2-(3-{4-[4-(1-hydroxycyclopropanecarbonyl)piperazine-1-carbonyl]phenyl}phenyl)-1λ^6,2-thiazolidine-1,1-dione] the figure was less than 500 nM; with `O=C(c1ccc(-c2cccc3[nH]cnc23)cc1Cl)N1CCN(C(=O)C2(O)CC2)CC1` [1-{4-[4-(1H-1,3-benzodiazol-4-yl)-2-chlorobenzoyl]piperazine-1-carbonyl}cyclopropan-1-ol], less than 500 nM. For the molecule `Cc1nnc(-c2cccc(-c3ccc(C(=O)N4CCN(C(=O)C5(O)CC5)CC4)cc3)c2)s1` [1-(4-{4-[3-(5-methyl-1,3,4-thiadiazol-2-yl)phenyl]benzoyl}piperazine-1-carbonyl)cyclopropan-1-ol], the 50% inhibitory concentration (IC50) was less than 500 nM. `O=C(c1ccc(-c2cnc3ccccc3c2)cc1)N1CCN(C(=O)C2(O)CC2)CC1` [1-[(4-{[4-(quinolin-3-yl)phenyl]carbonyl}piperazin-1-yl)carbonyl]cyclopropan-1-ol] had a concentration for half-maximal inhibition (IC50) of less than 500 nM.

In the case of `Cc1nn(C)c2ccc(-c3ccc(C(=O)N4CCN(C(=O)C5(N)CCC5)CC4)cc3)cc12` [1-{4-[4-(1,3-dimethyl-1H-indazol-5-yl)benzoyl]piperazine-1-carbonyl}cyclobutan-1-amine], the IC50 was less than 500 nM.

In turn, `O=C(c1ccc(-c2ccc(F)cc2Cl)cc1)N1CCN(C(=O)C2(O)CC2)CC1` [1-[(4-{[4-(2-chloro-4-fluorophenyl)phenyl]carbonyl}piperazin-1-yl)carbonyl]cyclopropan-1-ol] had an IC50 of less than 500 nM.

Molecule `Cn1ncc2ccc(-c3ccc(C(=O)N4CCN(C(=O)C5(O)CC5)CC4)c(F)c3)cc21` [1-{4-[2-fluoro-4-(1-methyl-1H-indazol-6-yl)benzoyl]piperazine-1-carbonyl}cyclopropan-1-ol] registered an IC50 of less than 500 nM. The same measure, in the same setting: with `C[C@@H]1CN(C(=O)c2ccc(-c3ccc(Cl)cc3F)cc2)CCN1C(=O)C1(O)CC1` [1-[(2R)-4-[4-(4-chloro-2-fluorophenyl)benzoyl]-2-methylpiperazine-1-carbonyl]cyclopropan-1-ol] the figure was less than 500 nM; with `O=C(c1ccc(-c2ccc3c(c2)ncn3CCO)cc1)N1CCN(C(=O)C2(O)CC2)CC1` [1-(4-{4-[1-(2-hydroxyethyl)-1H-1,3-benzodiazol-5-yl]benzoyl}piperazine-1-carbonyl)cyclopropan-1-ol], less than 500 nM.

Staying with this assay, now noted: FASN enzymatic assay; Table 2-2.
In turn, `CC(C)NC(=O)c1ccc(F)c(-c2ccc(C(=O)N3CCN(C(=O)C4(O)CC4)CC3)cc2)c1` [4-fluoro-3-[4-({4-[(1-hydroxycyclopropyl)carbonyl]piperazin-1-yl}carbonyl)phenyl]-N-(propan-2-yl)benzamide] had an IC50 of 500 to 5000 nM. `Cc1nc(-c2ccc3c(ccn3C)c2)sc1C(=O)N1CCN(C(=O)C2(O)CC2)CC1` [1-[(4-{[4-methyl-2-(1-methyl-1H-indol-5-yl)-1,3-thiazol-5-yl]carbonyl}piperazin-1-yl)carbonyl]cyclopropan-1-ol] gave a 50% inhibitory concentration (IC50) of 500 to 5000 nM. The same measure, in the same setting: with `O=C(c1ccc(-c2ccn3ccnc3n2)cc1)N1CCN(C(=O)C2(O)CC2)CC1` [1-({4-[(4-{imidazo[1,2-a]pyrimidin-7-yl}phenyl)carbonyl]piperazin-1-yl}carbonyl)cyclopropan-1-ol] the figure was 500 to 5000 nM; with `COc1cc(C(=O)N2CCN(C(=O)C3(O)CC3)CC2)ccc1-c1ccc2ncccc2c1` [1-[(4-{[3-methoxy-4-(quinolin-6-yl)phenyl]carbonyl}piperazin-1-yl)carbonyl]cyclopropan-1-ol], 500 to 5000 nM; with `COc1cc(-c2ccc3ncccc3c2)ccc1C(=O)N1CCN(C(=O)C2(O)CC2)CC1` [1-[(4-{[2-methoxy-4-(quinolin-6-yl)phenyl]carbonyl}piperazin-1-yl)carbonyl]cyclopropan-1-ol], 500 to 5000 nM. The same measure, in the same setting: with `Cc1ccc(-c2ccc(C(=O)N3CCN(C(=O)C4(O)CC4)CC3)cc2)cc1F` [1-[(4-{[4-(3-fluoro-4-methylphenyl)phenyl]carbonyl}piperazin-1-yl)carbonyl]cyclopropan-1-ol] the figure was 500 to 5000 nM.

The assay is the same for the next values; noted with them: FASN enzymatic assay; Table 2-3.
Molecule `CC(C)Oc1cccc(-c2ccc(C(=O)N3CCN(C(=O)C4(O)CC4)CC3)cc2)c1F` [1-{[4-({4-[2-fluoro-3-(propan-2-yloxy)phenyl]phenyl}carbonyl)piperazin-1-yl]carbonyl}cyclopropan-1-ol] showed an IC50 of no less than 5000 nM.

`C[C@H](O)C(=O)N1CCN(C(=O)c2ccc(-c3ccccc3)cc2)CC1` [(2S)-2-hydroxy-1-{4-[(4-phenylphenyl)carbonyl]piperazin-1-yl}propan-1-one] returned a half-inhibitory concentration (IC50) of no less than 5000 nM. Same read-out and setting: with `O=C(c1ccc(-c2ccc(Cl)cc2F)nc1)N1CCN(C(=O)C2(O)CC2)CC1` [1-[(4-{[6-(4-chloro-2-fluorophenyl)pyridin-3-yl]carbonyl}piperazin-1-yl)carbonyl]cyclopropan-1-ol] the figure was no less than 5000 nM. With `Cc1cccc(-c2ccc(C(=O)N3CCN(C(=O)C4(O)CC4)CC3)cc2)c1` [1-[(4-{[4-(3-methylphenyl)phenyl]carbonyl}piperazin-1-yl)carbonyl]cyclopropan-1-ol], the IC50 is no less than 5000 nM. In turn, `O=C(c1ccc(-c2cncc(F)c2)cc1)N1CCN(C(=O)C2(O)CC2)CC1` [1-[(4-{[4-(5-fluoropyridin-3-yl)phenyl]carbonyl}piperazin-1-yl)carbonyl]cyclopropan-1-ol] registered an IC50 of no less than 5000 nM.

In turn, `O=C(c1ccc(-c2cccc(F)c2F)cc1)N1CCN(C(=O)C2(O)CC2)CC1` [1-[(4-{[4-(2,3-difluorophenyl)phenyl]carbonyl}piperazin-1-yl)carbonyl]cyclopropan-1-ol] displayed an IC50 of no less than 5000 nM. `O=C(CO)N1CCN(C(=O)c2ccc(-c3ccccc3)cc2)CC1` [2-hydroxy-1-{4-[(4-phenylphenyl)carbonyl]piperazin-1-yl}ethan-1-one] had an IC50 of no less than 5000 nM.

In turn, `N#Cc1cc(F)ccc1-c1ccc(C(=O)N2CCN(C(=O)C3(O)CC3)CC2)cc1` [5-fluoro-2-[4-({4-[(1-hydroxycyclopropyl)carbonyl]piperazin-1-yl}carbonyl)phenyl]benzonitrile] displayed an IC50 of no less than 5000 nM.

The record behind these values is US10457655B2, “Compounds and compositions for inhibition of FASN” (FORMA Therapeutics, Inc., priority 2013, dated 2019).
